Test results as given in patent publication US20070282004A1, “Use of a Cyclopentenone Prostaglandin for Delaying for the Onset and/or Preventing the Continuation of Labour” (Imperial College Innovations Limited, priority 2003, published 2007).
Residues, ends and D or L forms follow the SMILES beside them. *: point of attachment. Cbz = O=C(OCc1ccccc1)*

Key:
[1] = tested on: NF-κB; assay: Western immunoblot of p65, p50, IκB in myometrial cell extracts; assay type: cell-based, human; settings: myometrial cells, IL-1β 15 min
Experimental: (§1) Western immunoblots of nuclear or cytosolic protein extracts from (A) myometrial cells, (B) L− amnion cells, and (C) L+ amnion cells treated with 15dPGJ2 or vehicle for 2 h±IL-1β stimulation (15 min). Blots probed with antibodies against p65, p50 or IκBα.
Western immunoblots of nuclear or cytosolic protein extracts from myometrial cells treated with PGA1 or vehicle for 2 h followed by IL-1β stimulation (15 min). Blots probed with antibodies against p65 or IκBa.
Western immunoblots of cytosolic extracts from myometrial cells (A) treated with 15dPGJ2 for 2h±IL1b for 15 min; probed for IKK, and (B) treated with […] 15dPGJ2, […] MG132 or vehicle for 2 h, ±IL-1β for 15 min; probed for IκBα.
(A) NF-κB-DNA binding was measured by EMSA in nuclear protein extracts from myometrial cells pre-treated with vehicle, 15d-PGJ2 or PGA1 for 2 h, followed by stimulation with IL-1β (1 ng/ml) for 15 min. Antibodies against p50 and p65 were used for supershift analysis. (B) Myometrial cells were transiently transfected with a NF-κB-LUC reporter and a β-gal reporter plasmid, pre-treated with vehicle or PGA1 for 2 h, and stimulated with IL-1β (1 ng/ml) for 6 h. Luciferase activity was normalized for β-gal reporter readout. Values are presented as the mean±SEM obtained for each treatment done in triplicate. Western blot analysis of nuclear p65 and p50 expression in myometrial cells treated with (C) PGA1 or (D) 15d-PGJ2 for 2 h, followed by stimulation with IL-1β (1 ng/ml) for 15 min. (E) Western blot analysis of whole cell lysates from myometrial cells treated with 15d-PGJ2 or 9,10-dihydro-15d-PGJ2 for 2 h, followed by stimulation with IL-1β (1 ng/ml) for 15 min. Membranes were probed with antibodies against p65 and Ser 536-phosphorylated p65.
(§2) Myometrial tissue was collected at term from the upper margin of uterine incision at the time of lower segment caesarean section either prior to the onset of labour (L−) or […] (L+). L+ samples were collected by Dr Mark Johnson and Dr S Soorrana at Chelsea & Westminster Hospital. Myometrial tissue was dissected, rinsed in PBS, and digested in serum-free DMEM containing 15 mg/ml collagenase 1A (Sigma), 15 mg/ml collagenase X, and 50 mg/ml bovine serum albumin for 45 min at 37° C. The cell suspension was filtered through a cell strainer, centrifuged at 400 g for 5 min, and the pellet re-suspended and plated out in DMEM, 10% FCS (Helena BioScience), 1% L-glutainine, 1% penicillin-streptomycin. Cells were used between passage numbers 1-4.
(§3) Nuclear and cytosolic protein extracts were obtained from cultured amnion cells as described by Schreiber et al (1989). For nuclear/cytosolic fractionation, confluent cell monolayers were scraped and lysed using a buffer containing 10 mM HEPES, 10 mM KCl, 0.1 mM EDTA, 0.1 mM EGTA, 2 mM DTT, 1% (v/v) NP-40 and complete protease inhibitor tablets (CPIs, Roche), diluted to manufacturer's instructions. Cell lysates were incubated on ice for 10 min and NP-40 added to a final concentration of 1% (v/v). Lysates were vortexed for 10 secs and centrifuged for 30 secs at 4° C., 12000 g. The supernatants were retained as the cytosolic protein extracts. The pellets were resuspended in buffer containing 10 mM HEPES, 10 mM KCl, 0.1 mM EDTA, 0.1 mM EGTA, 2 mM DTT, 400 mM NaCl, 1% NP-40 (v/v) and CPIs. Samples were shaken vigorously for 15 min in an ice bath. The nuclear protein extracts were obtained in the supernatant following a 5 min centrifugation at 4° C., 12000 g.
Protein samples (20-70 μg) were mixed with Laemmli sample buffer (1:1) containing β-mercaptoethanol (5%), and boiled for 5 min. Proteins were then separated by SDS-PAGE (12-14% gels) and transferred onto PVDF membrane (Amersham Pharmacia Biotech). The membranes were blocked overnight in 5% non-fat milk prepared in PBS-T buffer, at 4° C. The blots were incubated with the primary antibody in 1% non-fat milk in PBS-T buffer for 1 h, and washed three times (10 min each) in PBS-T with vigorous shaking. […]

[2] = molecular target: T1, PPAR-γ (Homo sapiens, UniProt P37231); settings: as stated from the literature; cited from earlier work
T1 sequence (P37231 1-505): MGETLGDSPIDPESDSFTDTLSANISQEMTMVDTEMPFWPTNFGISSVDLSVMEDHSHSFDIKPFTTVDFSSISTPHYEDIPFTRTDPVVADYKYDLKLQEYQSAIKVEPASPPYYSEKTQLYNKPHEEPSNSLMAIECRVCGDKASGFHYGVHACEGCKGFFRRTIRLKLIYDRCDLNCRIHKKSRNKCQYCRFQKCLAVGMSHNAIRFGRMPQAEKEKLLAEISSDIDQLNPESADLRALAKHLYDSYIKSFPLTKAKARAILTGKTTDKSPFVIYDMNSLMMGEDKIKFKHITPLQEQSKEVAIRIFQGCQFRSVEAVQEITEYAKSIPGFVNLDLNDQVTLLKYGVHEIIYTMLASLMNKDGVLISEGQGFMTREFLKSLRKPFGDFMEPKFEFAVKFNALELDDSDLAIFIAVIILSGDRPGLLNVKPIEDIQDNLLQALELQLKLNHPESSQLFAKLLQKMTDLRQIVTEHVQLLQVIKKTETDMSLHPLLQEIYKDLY

[3] = molecular target: T2, NF-κB (Homo sapiens, UniProt P19838+Q04206); assay: EMSA of NF-κB DNA binding in nuclear extracts of treated myometrial cells; assay type: cell-based; settings: myometrial cells; for Stimulation of NF-κB activity / induction of NFκB DNA binding by the compound alone: no cytokine; for IL-1β-induced NF-κB DNA binding (EMSA): then IL-1β 15 min
T2 construct: nuclear protein extracts from myometrial cells; endogenous in cells; host or cells: primary human myometrial cells (term, passage 1-4)
Experimental: as §2, §3
(§4) Sense and antisense strands (175 nmole/ml each) were incubated in annealing buffer (10 mM Tris-HCl pH7.5, 100 mM NaCl, 1 mM EDTA) for 10 min at 65° C., and allowed to cool at room temperature for 2 h. 3.5 pmole double-stranded oligonucleotides were end-labelled with 0.37 MBq ^32P(γATP) by incubating for 30 min at 37° C. with T4 polynucleotide kinase. Labelled oligonucleotides were recovered by centrifugation at 3000 rpm for 2 min through MicroSpin G-25 or G-50 sephadex columns (Amersham Biosciences).
(§5) 3-5 μg protein extracts were incubated on ice for 1 h with non-radiolabelled non-specific oligonucleotide (poly(dI-dC) or Oct-1) in a binding buffer (20% (v/V) glycerol, 5 mM MgCl2, 2 mM EDTA, 50 mM Tris-HCl pH7.5, 250 mM NaCl, 2 mM DTT), followed by a 45 min incubation with 0.035 pmole ^32P(γ(ATP)-end labelled oligonucleotide probes:
(§6) Oct-1 or SP-1 consensus sequences were used as a controls for a NF-κB-specific effect. The resulting protein/DNA complexes were separated in a 4% acrylamide gel, the gel dried under vacuum at 80° C. and exposed to X-ray film. For supershift analysis, samples were incubated with 2 μg antibodies for 30 min on ice prior to incubation with oligonucleotides. Non-radio-labelled oligonucleotides were used at 100-fold molar excess for specific and non-specific competition for DNA binding. Reagents for EMSA were obtained from Promega Life Sciences, Delta House, Chilworth Research Centre, Southampton SO16 7NS, United Kingdom.

[4] = molecular target: T2, NF-κB; assay: EMSA of NF-κB DNA binding in nuclear extracts of treated amnion cells; assay type: cell-based
Experimental: (§7) Placentae were obtained from patients at term either at elective Caesarean section prior to labour (L−) or following spontaneous labour onset and vaginal delivery (L+). Amnion cells were prepared as described in Bennett et al., (1989). Briefly, the amnion was separated from the placenta, washed 3× in PBS, cut into strips, and incubated in 0.5 mM EDTA in PBS for 15 min. The strips were washed in PBS 2× and digested with 2.5 mg/ml dispase in serum-free DMEM for 35 min at 37° C. The amnion was then shaken vigorously in DMEM, 10% FCS to dissociate the cells, the remaining strips discarded, and the cell suspension pelleted at 175 g for 10 min and cultured in DMEM, 10% FCS (Sigma), 1% L-glutamine, 1% penicillin-streptomycin.
as §3, §4, §5, §6

[5] = tested on: NF-κB; assay: Western immunoblot of p65, p50, IκB in amnion cell extracts; assay type: cell-based, human; settings: L−, L+ amnion cells, treated 2 h, IL-1β 15 min
Experimental: as §1, §7, §3
Protein samples (20-70 μg) were mixed with Laemmli sample buffer (1:1) containing β-mercaptoethanol (5%), and boiled for 5 min. Proteins were then separated by SDS-PAGE (12-14% gels) and transferred onto PVDF membrane (Amersham Pharmacia Biotech). The membranes were blocked overnight in 5% non-fat milk prepared in PBS-T buffer, at 4° C. The blots were incubated with the primary antibody in 1% non-fat milk in PBS-T buffer for 1 h, and washed three times (10 min each) in PBS-T with vigorous shaking. The blots were then incubated with HRP-conjugated secondary antibody (diluted 1:2000 in 1% non-fat milk in PBS-T buffer) for 1 h and washed three times (10 min each) in PBS-T. Signal detection was achieved using enhanced chemi-luminescence (ECL plus system, Amersham Pharmacia Biotech) according to manufacturer's instructions.
30-50 μg protein extracts were subjected to SDS-PAGE and Western immuno-blotting. Secondary antibodies were IgG-HRP and ECL Plus detection kit (Amersham Pharmacia Biotech, Amersham Place, Little Chalfont, Bucks, HP7 9NA) was used for visualisation.

[6] = tested on: NF-κB; assay: NF-κB-dependent luciferase reporter (κB.BG.Luc) in myometrial cells; assay type: cell-based, human; settings: treated 2 h, IL-1β 1 ng/ml 6 h
Experimental: Myometrial cells were transiently transfected with the NFκB-dependent reporter construct κB.BG.Luc, treated with 15dPGJ2 or vehicle for 2 h, ±IL-1β (1 ng/ml) for 6 h. […] Values are normalised for b-gal reporter activity. (NS=nonstimulated).
Myometrial cells were transfected with […] κB.BG.Luc reporter and 200 ng PPAR-γ expression vector and treated with 15d-PGJ2 for 2 h followed by IL-1β (1 ng/ml) for 6 h. Values are normalised for β-galactosidase reporter activity. (NS=nonstimulated).
as §2
pGL3.6κB.BG.luc: a NF-κB-dependent reporter construct with 6 copies of the NF-κB binding site.
Cells were co-transfected with the renilla vector pRL-CMV or β-galactosidase vector pCH110 as internal controls for transfection efficiencies.

[7] = tested on: contractions of pre-term labour; settings: people; cited from earlier work
[8] = tested on: ductus arteriosus, fetal urine output; settings: in vivo; cited from earlier work
[9] = tested on: NF-κB; assay: NF-κB-dependent luciferase reporter (κB.BG.Luc) in myometrial cells; assay type: cell-based, human; settings: 200 ng PPAR-γ expression vector, 10 mM troglitazone 7 h, IL-1β 17 h

T2 sequence (Q04206 whole entry): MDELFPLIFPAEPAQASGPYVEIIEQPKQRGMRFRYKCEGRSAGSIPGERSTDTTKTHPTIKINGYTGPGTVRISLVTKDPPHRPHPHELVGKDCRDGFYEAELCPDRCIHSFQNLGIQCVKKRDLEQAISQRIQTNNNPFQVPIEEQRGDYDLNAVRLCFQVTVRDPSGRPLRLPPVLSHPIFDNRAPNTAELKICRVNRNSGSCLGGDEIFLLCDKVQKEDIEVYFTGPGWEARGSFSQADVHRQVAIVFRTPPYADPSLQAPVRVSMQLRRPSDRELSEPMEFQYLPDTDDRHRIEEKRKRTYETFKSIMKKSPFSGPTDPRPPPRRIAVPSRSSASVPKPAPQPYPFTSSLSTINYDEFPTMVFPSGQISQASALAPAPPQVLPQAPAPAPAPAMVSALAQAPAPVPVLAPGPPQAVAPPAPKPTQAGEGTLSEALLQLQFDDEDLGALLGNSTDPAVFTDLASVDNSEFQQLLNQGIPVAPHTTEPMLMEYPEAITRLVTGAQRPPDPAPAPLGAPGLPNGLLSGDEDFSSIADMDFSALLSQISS
T2 sequence (P19838 1-433 limits assumed): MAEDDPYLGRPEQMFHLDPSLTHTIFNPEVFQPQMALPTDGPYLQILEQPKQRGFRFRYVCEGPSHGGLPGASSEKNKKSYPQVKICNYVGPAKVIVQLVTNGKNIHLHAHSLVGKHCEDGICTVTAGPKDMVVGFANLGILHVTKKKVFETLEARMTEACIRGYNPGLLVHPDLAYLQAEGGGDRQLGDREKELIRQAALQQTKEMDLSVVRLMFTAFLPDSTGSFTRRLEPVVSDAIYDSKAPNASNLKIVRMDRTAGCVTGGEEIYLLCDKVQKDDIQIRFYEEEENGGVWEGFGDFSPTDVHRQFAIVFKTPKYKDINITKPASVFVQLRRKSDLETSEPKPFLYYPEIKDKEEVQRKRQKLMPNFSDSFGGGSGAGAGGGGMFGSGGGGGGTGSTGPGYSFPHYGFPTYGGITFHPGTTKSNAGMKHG

Structure (SMILES): CCCCCC=CC=C1CCC(=O)C1CC=CCCCC(=O)O (centres unmarked) [9,10-dihydro-15d-PGJ2, 9,10-di-hydro-15-deoxy-Δ^12,14-Prostaglandin J2, reference compound]
- Reproduction of the effects of 15d-PGJ2 on NF-κB (incl. Ser 536-phosphorylated p65) ([1]; 2 h, similar in amnion epithelial cells): could not reproduce the effects
- PPAR agonist / ligand activity [2]: retains PPARγ agonist activity

Structure (SMILES): CCCCC(C)(C)[C@H](O)/C=C/[C@H]1[C@H](O)CC(=O)[C@@H]1C/C=C\CCCC(=O)O [16,16-Dimethyl-PGE2, reference compound]
- Synergy with IL-1β or TNFα on NF-κB activity [3]: nor did it synergise
- Stimulation of NF-κB activity / induction of NFκB DNA binding by the compound alone [3]: neither did it stimulate
- IL-1β-induced NF-κB DNA binding (EMSA) ([3]; treated 2 h): did not inhibit
- IL-1β-induced NF-κB DNA binding (EMSA) ([4]; L− and L+ amnion cells, treated 2 h, then IL-1β 15 min): did not inhibit
- IL-1β-induced p65 nuclear translocation ([1]; treated 2 h): did not inhibit
- IL-1β-induced p65 nuclear translocation [5]: did not inhibit

Structure (SMILES): CN(CCOc1ccc(C[C@H](Nc2ccccc2C(=O)c2ccccc2)C(=O)O)cc1)c1ccccn1 [GW1929, reference compound]
- IL-1β-induced NF-κB DNA binding (EMSA) ([3]; treated 2 h): failed to inhibit
- IL-1β-induced NF-κB transcriptional activity (κB.BG.Luc reporter) [6]: does not inhibit

Structure (SMILES): COc1ccc2c(c1)c(CC(=O)O)c(C)n2C(=O)c1ccc(Cl)cc1 [Indomethacin]
- Tocolytic efficacy [7]: effective in preventing the contractions

Structure (SMILES): CC(C)C[C@@H](C=O)NC(=O)[C@H](CC(C)C)NC(=O)[C@H](CC(C)C)NC(=O)OCc1ccccc1 [MG132, reference compound] (Cbz-Leu-Leu-Leu-aldehyde)
- Accumulation of phosphorylated IκBα ([1]; 2 h): resulted in the accumulation

Structure (SMILES): CCCCC[C@H](O)/C=C/[C@H]1[C@H](O)CC(=O)[C@@H]1C/C=C\CCCC(=O)O [PGE2, prostaglandin E2, reference compound]
- Stimulation of NF-κB activity / induction of NFκB DNA binding by the compound alone [3]: does not induce
- TNFα- and IL-1β-induced NFκB activation (EMSA, nuclear p65) ([3]; treated 2 h, TNFα or IL-1β 15 min): does not inhibit
- Induction of NFκB DNA binding by the compound alone ([4]; L− amnion cells, no cytokine): does not induce
- PPAR agonist / ligand activity [2]: does not activate PPAR-γ

Structure (SMILES): CC1=C(CC(=O)O)c2cc(F)ccc2/C1=C\c1ccc([S+](C)[O-])cc1 (centres unmarked) [Sulindac]
- Tocolytic efficacy [7]: equally good
- Effect on ductal patency [8]: minimal effect
- Fetal urine output [8]: smaller reduction

Structure (SMILES): Cc1c(C)c2c(c(C)c1O)CCC(C)(COc1ccc(CC3SC(=O)NC3=O)cc1)O2 (centres unmarked) [troglitazone]
- NF-κB-dependent reporter in PPARγ-transfected cells [9]: does not inhibit
